Six molecules from EP1935986B1, “Luminogenic and fluorogenic compounds and methods to detect molecules or conditions” (priority 2005, dated 2006) can be followed below.

For one data set, the target named is T1, CYP1A2 (Homo sapiens, UniProt P05177).
T1 construct: purchased Discovery Labware (BD/Gentest); host or cells: insect cell expression system (membrane fractions)
T1 sequence (P05177 2-516 limits assumed): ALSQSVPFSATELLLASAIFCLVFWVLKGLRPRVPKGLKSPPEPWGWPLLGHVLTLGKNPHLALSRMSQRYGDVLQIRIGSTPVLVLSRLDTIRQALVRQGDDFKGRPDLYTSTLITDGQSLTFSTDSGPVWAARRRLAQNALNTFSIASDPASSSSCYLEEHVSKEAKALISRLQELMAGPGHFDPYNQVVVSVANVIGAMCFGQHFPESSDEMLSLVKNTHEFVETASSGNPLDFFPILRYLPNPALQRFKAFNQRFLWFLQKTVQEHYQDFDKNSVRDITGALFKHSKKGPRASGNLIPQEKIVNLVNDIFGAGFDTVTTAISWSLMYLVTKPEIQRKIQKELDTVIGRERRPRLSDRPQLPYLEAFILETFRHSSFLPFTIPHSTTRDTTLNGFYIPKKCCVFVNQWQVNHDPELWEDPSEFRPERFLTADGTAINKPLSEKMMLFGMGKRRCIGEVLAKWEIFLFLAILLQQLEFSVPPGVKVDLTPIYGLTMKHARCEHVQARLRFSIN
The data set can be described thus: Two-step luminescent P450 screen of luciferin derivatives. In kind it is biochemical. The conditions noted are these: 50 µM substrate, 1 pmole P450, result in words. As to the method:
(§1) P450s are Supersomes™ purchased from Discovery Labware (BD/Gentest). […] HLM is human liver microsomes.
(§2) 1X substrate concentration: 50 µM.

For the next data set, the target named is T2, CYP2C9 (Homo sapiens, UniProt P11712).
T2 construct: purchased Discovery Labware (BD/Gentest); host or cells: insect cell expression system (membrane fractions)
T2 sequence (P11712 whole entry): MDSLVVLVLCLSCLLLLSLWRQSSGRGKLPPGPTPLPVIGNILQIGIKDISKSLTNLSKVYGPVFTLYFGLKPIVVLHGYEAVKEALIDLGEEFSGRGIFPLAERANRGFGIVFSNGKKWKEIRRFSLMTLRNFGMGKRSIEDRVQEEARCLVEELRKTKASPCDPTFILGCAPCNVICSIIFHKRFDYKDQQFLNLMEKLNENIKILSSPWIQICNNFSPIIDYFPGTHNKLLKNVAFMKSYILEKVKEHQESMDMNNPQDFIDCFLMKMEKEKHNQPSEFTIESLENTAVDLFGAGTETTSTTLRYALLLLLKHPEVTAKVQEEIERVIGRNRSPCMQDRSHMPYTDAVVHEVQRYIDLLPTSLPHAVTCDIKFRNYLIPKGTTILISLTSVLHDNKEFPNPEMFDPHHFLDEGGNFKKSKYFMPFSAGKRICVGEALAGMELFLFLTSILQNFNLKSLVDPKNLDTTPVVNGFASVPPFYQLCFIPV
The data set is described as above. In kind it is biochemical. Conditions: 50 µM substrate, 1 pmole P450, result in words. As to the method: as §1, §2

The next data set deals with T3, CYP4A11 (Homo sapiens, UniProt Q02928).
T3 construct: purchased Discovery Labware (BD/Gentest); host or cells: insect cell expression system (membrane fractions)
T3 sequence (Q02928 5-519): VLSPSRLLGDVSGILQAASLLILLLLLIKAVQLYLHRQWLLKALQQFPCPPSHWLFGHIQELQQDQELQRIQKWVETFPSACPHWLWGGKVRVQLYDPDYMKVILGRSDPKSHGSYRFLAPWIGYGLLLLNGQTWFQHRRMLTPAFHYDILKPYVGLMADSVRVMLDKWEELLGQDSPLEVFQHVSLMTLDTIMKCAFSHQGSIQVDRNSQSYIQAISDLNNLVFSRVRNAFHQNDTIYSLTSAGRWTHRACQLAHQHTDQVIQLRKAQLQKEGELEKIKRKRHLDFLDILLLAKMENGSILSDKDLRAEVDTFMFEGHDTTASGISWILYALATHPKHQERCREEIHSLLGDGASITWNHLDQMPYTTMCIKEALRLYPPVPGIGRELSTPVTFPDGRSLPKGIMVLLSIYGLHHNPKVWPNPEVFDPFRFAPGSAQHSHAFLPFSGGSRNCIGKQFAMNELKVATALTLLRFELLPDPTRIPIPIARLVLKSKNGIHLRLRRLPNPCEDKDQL
The description is as above. In kind it is biochemical. Conditions: result in words. As to the method: as §1, §2

In another data set the target is T4, CYP1A1 (Homo sapiens, UniProt P04798).
T4 sequence (P04798 1-512): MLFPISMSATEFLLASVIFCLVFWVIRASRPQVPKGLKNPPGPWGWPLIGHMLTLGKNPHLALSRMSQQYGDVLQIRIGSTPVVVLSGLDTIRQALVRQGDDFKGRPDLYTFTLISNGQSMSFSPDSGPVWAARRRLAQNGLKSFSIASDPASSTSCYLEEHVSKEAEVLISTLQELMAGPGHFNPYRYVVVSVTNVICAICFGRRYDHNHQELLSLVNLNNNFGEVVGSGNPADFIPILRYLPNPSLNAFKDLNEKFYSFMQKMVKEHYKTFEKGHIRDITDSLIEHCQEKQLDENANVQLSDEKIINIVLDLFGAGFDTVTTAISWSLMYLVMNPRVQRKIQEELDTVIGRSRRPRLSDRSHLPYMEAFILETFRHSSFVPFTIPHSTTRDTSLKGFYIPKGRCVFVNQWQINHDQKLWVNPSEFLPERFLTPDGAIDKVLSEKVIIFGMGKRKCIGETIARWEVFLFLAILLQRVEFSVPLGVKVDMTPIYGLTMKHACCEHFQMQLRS
The data set is described as above. Conditions: 50 µM substrate, 1 pmole P450, 37°C 30 minutes; result in words.

A further data set deals with T5, CYP2C8 (Homo sapiens, UniProt P10632).
T5 sequence (P10632 1-490): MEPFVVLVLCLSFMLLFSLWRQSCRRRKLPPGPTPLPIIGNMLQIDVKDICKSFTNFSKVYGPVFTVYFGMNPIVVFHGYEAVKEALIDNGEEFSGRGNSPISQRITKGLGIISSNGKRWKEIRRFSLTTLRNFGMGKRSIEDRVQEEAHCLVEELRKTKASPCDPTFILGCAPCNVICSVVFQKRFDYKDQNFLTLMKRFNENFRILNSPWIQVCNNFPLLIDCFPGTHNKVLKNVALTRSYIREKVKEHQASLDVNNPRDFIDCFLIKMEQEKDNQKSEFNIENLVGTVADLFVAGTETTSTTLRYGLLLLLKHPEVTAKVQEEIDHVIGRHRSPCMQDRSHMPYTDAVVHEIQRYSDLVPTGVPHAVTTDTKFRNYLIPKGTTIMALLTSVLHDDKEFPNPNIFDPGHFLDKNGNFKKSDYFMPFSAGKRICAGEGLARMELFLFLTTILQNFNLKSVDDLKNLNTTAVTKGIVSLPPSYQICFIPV
Described as above. Conditions: 50 µM substrate, 1 pmole P450, result in words.

The target of a further data set is T6, CYP2C19 (Homo sapiens, UniProt P33261).
T6 construct: purchased Discovery Labware (BD/Gentest); host or cells: insect cell expression system (membrane fractions)
T6 sequence (P33261 whole entry): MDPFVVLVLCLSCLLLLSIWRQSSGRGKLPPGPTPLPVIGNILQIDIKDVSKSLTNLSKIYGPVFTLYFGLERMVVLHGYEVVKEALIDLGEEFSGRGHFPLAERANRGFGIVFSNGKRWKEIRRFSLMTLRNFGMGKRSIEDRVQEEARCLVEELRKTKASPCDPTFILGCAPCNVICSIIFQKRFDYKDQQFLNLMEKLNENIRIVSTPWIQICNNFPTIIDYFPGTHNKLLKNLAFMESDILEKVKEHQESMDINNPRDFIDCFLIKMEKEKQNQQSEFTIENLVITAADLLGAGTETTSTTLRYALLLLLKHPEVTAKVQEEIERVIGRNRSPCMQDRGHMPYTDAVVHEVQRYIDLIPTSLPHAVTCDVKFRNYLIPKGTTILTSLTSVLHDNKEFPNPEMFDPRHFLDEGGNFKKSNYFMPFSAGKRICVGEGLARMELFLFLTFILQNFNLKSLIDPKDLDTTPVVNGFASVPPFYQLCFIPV
Described as above. In kind it is biochemical. The conditions noted are these: result in words. As to the method: as §1, §2
(§3) For Figure 20, 1 or 5 picomoles of recombinant CYP2D6 or CYP2C19 membrane fractions from an insect cell expression system (SupersomesTM, Discovery Labware) were incubated at 37°C for 60 minutes with 200 µM D-luciferin 6' methyl ether (luciferin-ME) in 50 mM (CYP2C19) or 100 mM (CYP2D6) KPO4 (pH 7.4) with an NADPH regenerating system (as described above) in a volume of 50 µl. […] For Figure 20, the panel of human P450s was screened as described above.

The target of the next data set is T7, CYP2D6 (Homo sapiens, UniProt P10635).
T7 construct: purchased Discovery Labware (BD/Gentest); host or cells: insect cell expression system (membrane fractions)
T7 sequence (P10635 whole entry): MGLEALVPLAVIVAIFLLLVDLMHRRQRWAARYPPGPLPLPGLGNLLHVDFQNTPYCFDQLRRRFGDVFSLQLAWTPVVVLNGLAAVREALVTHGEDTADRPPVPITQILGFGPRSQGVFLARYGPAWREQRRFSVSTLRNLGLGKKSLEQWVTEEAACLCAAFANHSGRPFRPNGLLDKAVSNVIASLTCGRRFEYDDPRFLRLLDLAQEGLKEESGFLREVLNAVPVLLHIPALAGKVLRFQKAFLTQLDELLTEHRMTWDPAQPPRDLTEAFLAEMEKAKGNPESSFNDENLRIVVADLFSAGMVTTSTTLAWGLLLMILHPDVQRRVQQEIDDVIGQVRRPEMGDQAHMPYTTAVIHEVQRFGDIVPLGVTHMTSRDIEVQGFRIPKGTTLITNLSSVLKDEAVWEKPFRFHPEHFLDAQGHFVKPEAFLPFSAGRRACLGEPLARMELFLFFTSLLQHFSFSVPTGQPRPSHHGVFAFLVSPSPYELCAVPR
Described as above. In kind it is biochemical. The conditions noted are these: result in words. As to the method: as §1, §2, §3

A further data set addresses T8, QuantiLum Luciferase (Photinus pyralis, UniProt P08659).
T8 construct: purchased Promega Corporation E170
In words: Scaffolds: light emission of luciferin derivatives with QuantiLum luciferase alone, + Co A, + DTT, + Co A and DTT. In kind it is biochemical, firefly. As to the method:
The DTT, Coenzyme A, and QuantiLum stock solutions are the same as those described herein.
This solution was diluted 1:1 with water to produce an enzyme solution labeled "No addition." This solution was diluted 1:1 with 400 mM DTT, pH 8.0 to produce a solution labeled +DTT. This solution was diluted 1:1 with 4 mM Coenzyme A to produce a solution labeled + Co A. Finally, this solution was diluted 1:1 with a solution having both 4 mM Coenzyme A and 400 mM DTT to produce a solution labeled +Co A & DTT.
50 µl samples of these solutions were placed in the wells of luminometer microtiter plates, row A to row G, respeutivly. Row H of the plates was given 50 µl of water.
Reactions in these plates were initiated by addition of 50 µl of solution containing QuantiLum luciferase using a 12 channel micropipette. The solutions added to the rows were: columns 1, 5, and 9 - no addition solution; columns 2, 6, and 10 - + Co A solution; columns 3, 7, and 11 + DTT solution, and; columns 4, 8, and 12 - + Co A and DTT solution. After addition of the enzyme solution to the first row on every plate, a timer was started. After addition of the enzyme solution to the last row on each plate, the plate was sealed and read on a Veritas luminometer.

The target in another data set is CYP3A7 (Homo sapiens, UniProt P24462). The data set can be described thus: Two-step luminescent P450 screen of luciferin derivatives. Conditions: result in words.
Chain of CYP3A7 (P24462 whole entry): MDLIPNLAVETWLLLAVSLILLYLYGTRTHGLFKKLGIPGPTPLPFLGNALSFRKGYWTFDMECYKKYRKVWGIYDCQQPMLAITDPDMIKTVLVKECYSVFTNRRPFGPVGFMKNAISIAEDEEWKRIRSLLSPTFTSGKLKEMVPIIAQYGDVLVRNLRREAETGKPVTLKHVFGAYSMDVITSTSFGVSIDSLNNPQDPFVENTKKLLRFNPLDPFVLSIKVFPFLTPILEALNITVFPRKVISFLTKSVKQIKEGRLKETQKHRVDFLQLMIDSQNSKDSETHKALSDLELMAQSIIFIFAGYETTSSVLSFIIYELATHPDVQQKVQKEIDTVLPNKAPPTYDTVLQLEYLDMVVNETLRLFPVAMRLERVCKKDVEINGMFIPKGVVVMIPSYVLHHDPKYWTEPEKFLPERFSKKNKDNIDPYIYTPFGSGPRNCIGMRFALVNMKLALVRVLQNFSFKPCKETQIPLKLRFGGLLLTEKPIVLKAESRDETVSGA

T8 sequence (P08659 whole entry): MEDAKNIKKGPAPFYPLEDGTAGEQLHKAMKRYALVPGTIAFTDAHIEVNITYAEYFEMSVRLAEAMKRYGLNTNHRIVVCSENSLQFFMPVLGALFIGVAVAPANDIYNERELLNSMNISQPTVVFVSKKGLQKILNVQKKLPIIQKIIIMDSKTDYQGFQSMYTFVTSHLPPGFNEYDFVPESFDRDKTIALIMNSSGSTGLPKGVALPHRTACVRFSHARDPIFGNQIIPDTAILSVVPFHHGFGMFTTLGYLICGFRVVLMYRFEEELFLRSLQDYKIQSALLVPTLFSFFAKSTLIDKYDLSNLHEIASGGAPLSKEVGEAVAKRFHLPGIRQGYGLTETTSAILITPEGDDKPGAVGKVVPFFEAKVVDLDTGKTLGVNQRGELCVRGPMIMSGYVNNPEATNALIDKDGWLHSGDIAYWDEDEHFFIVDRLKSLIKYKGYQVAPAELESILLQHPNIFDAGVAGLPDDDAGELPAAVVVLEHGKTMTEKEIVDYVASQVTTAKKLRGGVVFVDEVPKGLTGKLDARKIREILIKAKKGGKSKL

For the molecule `COc1cc(C)c2nc(C3=NC(C(=O)O)CS3)sc2c1` (centres unmarked) [4-methyl-6-(O-methyl)-luciferin], the “P450 activity / selectivity with the derivative as substrate” value (from here on “P450 activity / selectivity”) at CYP1A2 is “enhanced selectivity”; on CYP1A2 (listed as line 11), “preferred substrate”; at CYP2C9, “enhanced selectivity”; on CYP2C9 (listed as line 11), “preferred substrate”; at CYP4A11, “did not react”; at CYP1A1, “preferred substrate”. Besides, the “P450 activity / selectivity” value at CYP2C8 is “enhanced selectivity”; at CYP2C8 (listed as line 11) it was “preferred substrate”.

For `COc1ccc2nc(C3=N[C@@H](C(=O)O)CS3)sc2c1` [luciferin 6-methyl ether, D-luciferin 6' methyl ether, reference compound], the “P450 activity / selectivity” value at CYP2C19 is reported as “some activity”; at CYP2D6, “extremely low activity”; on CYP2D6 (listed as Luciferin 6-methyl ether) it was “some activity”. Moreover, the light emission values at QuantiLum Luciferase (Derivative Conc. 1.07, Alone) is given as 1197; on QuantiLum Luciferase (Derivative Conc. 1.07, Co A) it was 1523; on QuantiLum Luciferase (Derivative Conc. 1.07, Co A + DTT) it was 3180; on QuantiLum Luciferase (Derivative Conc. 1.07, DTT) it was 3160; on QuantiLum Luciferase (Derivative Conc. 3.13, Alone), 1053; on QuantiLum Luciferase (Derivative Conc. 3.13, Co A), 1360. Also, the light emission values at QuantiLum Luciferase (Derivative Conc. 3.13, Co A + DTT) is 2853; on QuantiLum Luciferase (Derivative Conc. 3.13, DTT), 3332; at QuantiLum Luciferase (Derivative Conc. 6.25, Alone) it was 1240; on QuantiLum Luciferase (Derivative Conc. 6.25, Co A) it was 1673; on QuantiLum Luciferase (Derivative Conc. 6.25, Co A + DTT) it was 2882; at QuantiLum Luciferase (Derivative Conc. 6.25, DTT), 2844. In addition, the light emission values amounted to 1563 on QuantiLum Luciferase (Derivative Conc. 12.5, Alone); 1768 on QuantiLum Luciferase (Derivative Conc. 12.5, Co A); 2510 on QuantiLum Luciferase (Derivative Conc. 12.5, Co A + DTT); 2961 on QuantiLum Luciferase (Derivative Conc. 12.5, DTT); 2083 on QuantiLum Luciferase (Derivative Conc. 25, Alone); 2224 at QuantiLum Luciferase (Derivative Conc. 25, Co A). Further, the light emission values at QuantiLum Luciferase (Derivative Conc. 25, Co A + DTT) worked out at 2992; at QuantiLum Luciferase (Derivative Conc. 25, DTT), 3491; on QuantiLum Luciferase (Derivative Conc. 50, Alone) it was 2690; at QuantiLum Luciferase (Derivative Conc. 50, Co A), 2704; on QuantiLum Luciferase (Derivative Conc. 50, Co A + DTT) it was 3635; on QuantiLum Luciferase (Derivative Conc. 50, DTT), 4052. The light emission values at QuantiLum Luciferase (Derivative Conc. 100, Alone) is 3589; at QuantiLum Luciferase (Derivative Conc. 100, Co A), 3389; on QuantiLum Luciferase (Derivative Conc. 100, Co A + DTT), 4550; on QuantiLum Luciferase (Derivative Conc. 100, DTT), 5399.

In the case of `COc1cc(OC)c2nc(C3=NC(C(=O)O)CS3)sc2c1` (centres unmarked) [4-(O-methyl)-6-(O-methyl)-luciferin], the “P450 activity / selectivity” value on CYP1A2 is given as “enhanced selectivity”; at CYP1A2 (listed as line 12), “preferred substrate”; on CYP2C9, “enhanced selectivity”; at CYP2C9 (listed as line 12), “preferred substrate”; on CYP4A11, “did not react”; at CYP1A1, “preferred substrate”. In addition, the “P450 activity / selectivity” value at CYP2C8 was “enhanced selectivity”; at CYP2C8 (listed as line 12), “preferred substrate”.

With bis-luciferin-xylyldiether, the “P450 activity / selectivity” value on CYP3A7 is on record as “selective”.

Turning to `O=C(O)[C@H]1CSC(c2nc3ccc(OCc4cccnc4)cc3s2)=N1` [luciferin 6' 3-picolinyl ether, reference compound], the “P450 activity / selectivity” value on CYP3A7 is on record as “cross reacted significantly”.

For `O=C(O)[C@H]1CSC(c2nc3ccc(OCSc4ccc(Cl)cc4)cc3s2)=N1` [6'-p-chlorophenylthiol-methoxy-luciferin, 6-(4-Chloro-phenylthiomethoxy) luciferin], the “P450 activity / selectivity” value at CYP3A7 is given as “showed selectivity”.
